Experimental data reported in article PMC12677653, “Inhibition of Tumor Lipogenesis and Growth by Peptide‐Based Targeting of SREBP Activation” (Advanced Science, 2025).
Residues, ends and D or L forms follow the SMILES beside them.

What was measured:
Huh7 cells = test: Cellular peptide uptake, western blot; format: in vitro ADME, human; conditions: biotin-labeled peptide 15 μM, 30 min, TAT versus TAT-LOF sequence
Procedure: d) Huh7 cells were incubated for 30 min with biotin-labeled Insig1/2 loop1 peptide (15 μM), either with TAT or TAT loss of function (TAT-LOF) sequence, with subsequent western blot analysis of cellular peptide uptake.

[1] = system: Insig1 pS207/Insig2 pS151, SREBP1, Ki67; test: IHC analysis of mouse tumors derived from Huh7 cells; format: in vivo, BALB/c athymic nude mice; conditions: peptide given as LNP@Insig1/2 loop 1 peptide 10 mg/kg iv, lenvatinib mesylate 2 mg/kg oral
Procedure: (§1) Representative micrographs are shown (scale bar: 20 µm). b,c) Cryosections of mouse tumor tissues were prepared for histological analysis. (b) Lipid accumulation was assessed by Oil Red O staining. Representative micrographs are shown (scale bar: 20 µm). (c) Apoptotic cells were detected by TUNEL assay. Representative micrographs are shown (scale bar: 20 µm). d,e) Quantitative analysis of (d) apoptotic areas (TUNEL‐positive regions) and (e) lipid droplet counts (Oil Red O‐positive particles) was performed. Data represent the mean ± SD (n = 4). Statistical significance was determined by one‐way analysis of variance (ANOVA). ** p < 0.01, **** p < 0.0001, ns, no significance.
As described previously,^[ [39] ^] IHC staining was performed using the Vectastain ABC kit (Vector Laboratories) according to the manufacturer's instructions. Sections of paraffin‐embedded xenograft tumors were stained with antibodies against Ki67, SREBP1, Insig1 pS207/Insig2 pS151, and nonspecific IgG was used as a negative control. Paraffin‐embedded human liver tumor sections were stained with antibodies against Ki67, SREBP1, Insig1 pS207/Insig2 pS151, with nonspecific IgG as a negative control. The tissue sections were quantitatively scored according to the percentage of positive cells and staining intensity. […] The intensity of staining was rated on a scale of 0 to 3: 0, negative; 1, weak; 2, moderate; and 3, strong. The study then combined the proportion and intensity scores to obtain a total score (range, 0–8).

[2] = system: lipid accumulation in tumor tissues; test: Oil Red O staining of tumor tissues; format: in vivo, BALB/c athymic nude mice; conditions: cryosections of Huh7 tumors, n = 4; peptide given as LNP 10 mg/kg iv; lenvatinib mesylate 2 mg/kg oral
Procedure: as §1
Cryosections 6–8 µm in thickness were air‐dried and fixed with formaldehyde for 5–10 min. Then, the slides were placed in absolute propylene glycol for 2–5 min and stained with 0.5% Oil red O dye. After staining, the slides were rinsed, counterstained with Mayer's hematoxylin for 1 min, and mounted in glycerin.

tumor cell apoptosis = test: TUNEL assay of tumor tissues; format: in vivo, BALB/c athymic nude mice; conditions: cryosections of Huh7 tumors, n = 4; peptide given as LNP 10 mg/kg iv; lenvatinib mesylate 2 mg/kg oral
Procedure: as §1
Mouse tumor tissues were sectioned at 5 µm thickness. Apoptotic cells were counted using the colorimetric TUNEL System (Beyotime, C1091) according to the manufacturer's instructions. The total numbers of apoptotic cells were counted in six high‐power fields and presented as an average number of apoptotic cells per high‐power fields.

[3] = biological target: T1, S90-phosphorylated GST-PCK1 (human, UniProt P35558 1-622, phosphoserine at 90; biotin (G-MM-IGT Biotinylation kit)); test: BLI; phosphorylated S90
T1 chain: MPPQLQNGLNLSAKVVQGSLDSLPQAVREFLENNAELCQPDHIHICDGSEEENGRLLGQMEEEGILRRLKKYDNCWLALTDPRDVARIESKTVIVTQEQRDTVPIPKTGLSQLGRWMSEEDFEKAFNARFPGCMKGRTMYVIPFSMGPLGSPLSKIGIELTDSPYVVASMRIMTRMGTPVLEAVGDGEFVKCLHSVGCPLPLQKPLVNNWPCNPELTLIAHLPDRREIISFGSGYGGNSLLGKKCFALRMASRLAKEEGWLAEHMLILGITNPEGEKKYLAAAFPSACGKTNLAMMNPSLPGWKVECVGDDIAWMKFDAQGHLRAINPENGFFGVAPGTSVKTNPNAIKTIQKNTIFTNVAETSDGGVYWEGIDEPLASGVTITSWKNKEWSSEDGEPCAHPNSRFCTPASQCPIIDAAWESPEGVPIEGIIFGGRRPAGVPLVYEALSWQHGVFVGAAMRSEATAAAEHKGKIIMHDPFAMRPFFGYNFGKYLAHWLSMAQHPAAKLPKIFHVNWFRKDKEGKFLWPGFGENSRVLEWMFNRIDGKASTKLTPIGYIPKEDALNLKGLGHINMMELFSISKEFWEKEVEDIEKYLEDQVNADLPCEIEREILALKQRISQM

WT GST-PCK1 = biological target: T2, WT GST-PCK1 (human, UniProt P35558 1-622, biotin (G-MM-IGT Biotinylation kit)); test: BLI
T2 chain: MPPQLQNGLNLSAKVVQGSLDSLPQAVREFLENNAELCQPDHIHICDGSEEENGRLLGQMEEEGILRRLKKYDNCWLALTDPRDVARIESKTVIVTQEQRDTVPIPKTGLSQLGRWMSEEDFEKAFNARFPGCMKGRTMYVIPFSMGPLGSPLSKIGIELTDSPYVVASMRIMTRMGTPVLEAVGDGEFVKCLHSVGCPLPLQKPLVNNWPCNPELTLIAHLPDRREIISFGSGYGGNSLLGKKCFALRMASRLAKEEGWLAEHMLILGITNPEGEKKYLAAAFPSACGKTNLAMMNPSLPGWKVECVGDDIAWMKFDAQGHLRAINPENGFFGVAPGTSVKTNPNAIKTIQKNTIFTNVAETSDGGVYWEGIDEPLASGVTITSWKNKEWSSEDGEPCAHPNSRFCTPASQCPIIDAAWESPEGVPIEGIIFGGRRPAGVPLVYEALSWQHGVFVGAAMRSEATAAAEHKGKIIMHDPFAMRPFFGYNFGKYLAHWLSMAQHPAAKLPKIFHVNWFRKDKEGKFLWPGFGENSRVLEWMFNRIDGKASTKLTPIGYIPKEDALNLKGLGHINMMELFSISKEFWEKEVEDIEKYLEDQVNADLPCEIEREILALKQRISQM

Molecule: CC[C@H](C)[C@H](NC(=O)[C@H](CS)NC(=O)[C@@H]1CCCN1C(=O)[C@H](Cc1ccc(O)cc1)NC(=O)[C@H](CC(C)C)NC(=O)CCCC[C@@H]1SC[C@@H]2NC(=O)N[C@@H]21)C(=O)N[C@@H](CC(=O)O)C(=O)N[C@@H](CO)C(=O)N[C@@H](Cc1c[nH]cn1)C(=O)N[C@@H](CC(C)C)C(=O)NCC(=O)N[C@@H](CCC(=O)O)C(=O)N1CCC[C@H]1C(=O)N[C@@H](Cc1c[nH]cn1)C(=O)N[C@@H](CCCCN)C(=O)N[C@@H](Cc1ccccc1)C(=O)N[C@@H](CCCCN)C(=O)N[C@@H](CCCNC(=N)N)C(=O)N[C@@H](CCC(=O)O)C(=O)N[C@@H](C)C(=O)N[C@@H](C)C(=O)N[C@@H](CCC(=O)O)C(=O)N[C@@H](C)C(=O)N[C@@H](C)C(=O)N[C@@H](CCC(N)=O)C(=O)N[C@@H](C)C(=O)N[C@@H](C)C(=O)N[C@@H](CCC(=O)O)C(=O)O [Biotin‐peptide‐TAT LOF] (HELM PEPTIDE1{[O=C1N[C@H]2[C@H](CS[C@H]2CCCCC(=O)[*:2])N1].L.Y.P.C.I.D.S.H.L.G.E.P.H.K.F.K.R.E.A.A.E.A.A.Q.A.A.E}$$$$V2.0)
- peptide accumulation in tumor cells in vitro (Huh7 cells): substantially reduced peptide accumulation

Molecule: COc1cc2nccc(Oc3ccc(NC(=O)NC4CC4)c(Cl)c3)c2cc1C(N)=O [lenvatinib, reference compound]
- Insig1 S207/Insig2 S151 phosphorylation in tumors [1]: reductions were also observed
- Ki67 expression in tumors [1]: reductions were also observed
- SREBP1 expression and nuclear accumulation in tumors [1]: reductions were also observed
- lipid accumulation in tumor tissues (Oil Red O) [2]: reductions were also observed
- cell apoptosis in tumor tissues (TUNEL) (tumor cell apoptosis): induced cell apoptosis in tumor tissues

Molecule: LYPCIDSHLGEPHKFKRE [Insig1/2 loop 1 peptide (143-LYPCIDSHLGEPHKFKRE-160)]
- Kd [3]: 10.5 µM
- Kd (WT GST-PCK1): 36.8 µM
